Source: patent US10143691B2, “Pathogenic control of apoptosis” (CSIR, priority 2014, dated 2018)
Entries after “also recorded” stand apart in the source; their conditions may differ.

System: lincRNAp21
Experiment: lincRNA-p21 expression by RNA FISH spot counts and quantitative RT-PCR
Type: cell-based, human
Conditions: uninfected Ghost(3) cells, drug-treated, smFISH spot count and qRT-PCR
Experimental: RNA FISH on Ghost(3) cells was performed according to Raj, 2008 and on primary macrophages according to Schaffer, 2013. For both methods 48 20mer probes (Biosearch) targeted to human lincRNAp21 were synthesised baring a […] C6dT. The amino group was subsequently conjugated to the following NHSester dyes: ATTO565, ATTO647N (ATTOTEC) or Alexa Fluor 647 (Invitrogen). Briefly, oligonucleotide probes were ethanol precipitated and resuspended in 0.1 M sodium tetraborate (Sigma). Approximately 0.3 mg of the NHSester dye (ATTOTEC) was dissolved in dimethyl sulphoxide (Sigma). The dye solution was added to the probe solution and incubated overnight in the dark at 37° C. Following the conjugation reaction, the probes were ethanol precipitated overnight, and resuspended in 0.1 M triethyl ammonium (Sigma). Conjugated probes were separated and purified to enrich for dyeconjugated probes by reverse phase HPLC on a C18 column. […]
For each experiment, Ghost(3) cells or IPSO-derived primary macrophages were infected or treated with 500 nM Doxorubicin over time and total RNA was extracted from cells using TRIzol® (Life Technologies), treated with RQ1 RNase-free DNase (Promega) and reverse transcribed using SuperScript III Reverse Transcriptase (Life Technologies). Quantitative RTPCR was performed using Sso Fast EvaGreen™ supermix (BioRad) on a BioRad CFX96 real-time PCR detection system. […]

For `COc1cccc2c1C(=O)c1c(O)c3c(c(O)c1C2=O)C[C@@](O)(C(=O)CO)C[C@@H]3O[C@H]1C[C@H](N)[C@H](O)[C@H](C)O1` [Doxorubicin], the lincRNA-p21 expression was “enhanced; also recorded: significantly increases lincRNAp21 expression over time”.
